As a reminder, the IC50 is the midpoint of a concentration-inhibition curve. Higher therefore signals lower potency.

The first assay deals with H358 cells. The assay is described as follows: Cell activity experiment: activity test of H358 cells (MTT, 5 days). Format: cell-based. The following applies: 5 days incubation, absorbance 492 nm. The method, then:
Example: Cell Activity Experiment
1. Cells: H358 purchased from Shanghai EK-Bioscience Biotechnology Co., Ltd.
2. Reagents: RPMI 1640 medium, Tryple, MTT (5 mg/mL), DMSO, and DPBS.
3. Instruments: an incubator at 37° C. and 5% CO2, a UTRAO microplate reader, a biosafety cabinet, a cell counting plate, and an Optec optical microscope.
4. Experimental consumables: 96-well plate Item No.: 3599, and 96-well round-bottomed dispensing plate.
Experimental Steps of Activity Test of H358 Cells:
1. Plating: Cells in the logarithmic growth phase were digested with Tryple and terminated with a fresh medium, and the cells were counted; and the cell concentration was adjusted to 55555 cells/mL with a fresh medium, wherein 90 μL was added to each well, and those on edges were filled with sterile DPBS.
2. The plate was incubated in the incubator at 37° C. and 5% CO2 for 24 h, so that the cells cover the bottom of the well by about 50%.
3. Drug preparation for experimental group: The drug was dissolved in DMSO to prepare a 20 mmol/L stock solution; the stock solution was further diluted with DMSO to 2 mmol/L, which was serially 3-fold diluted to form an […]-concentration gradient, resulting in a 200× serial compound solution; 10 μL of the serial compound solution was taken and added to 190 μLμL of RPMI1640 medium to obtain a 10× serial compound solution; and 10 μL of the 10× compound solution was taken and added to 90 μL 96-well cell culture plate, with three replicates per grade. The concentration gradient of the compound in the 96-well cell culture plate was […], 1.524158 nM, 4.572474 nM, 13.717420 nM, 41.152260 nM, 123.456800 nM, 370.370400 nM, 1111.111000 nM, 3333.333000 nM, and 10000.000000 nM, with 100 μL per well, and the final concentration of DMSO was 0.5%.
The control group contained the same volume of solvent as the experimental group and was diluted with a complete medium, with 100 μL per well.
4. Incubation was carried out for 5 days in an incubator with 5% CO2 at 37° C.
5. After 5 days, 10 μL of an MTT solution (5 mg/mL) was added to each well, and the culture was continued for 4 h.
6. The culture was terminated, and the culture solution was carefully sucked out of the well.
7. 150 μL of dimethyl sulfoxide (DMSO) was added to each of the null wells in the experimental group and the control group; and after shaking at a medium speed for 10 s, the crystal was fully dissolved, and the optical absorbance value thereof was measured at a wavelength of 492 nm.
Turning to `C=C(F)C(=O)N1CCN(c2nc(OC[C@@]34CCCN3C[C@H](F)C4)nc3c(OC4CC4)c(-c4cccc5c4CC4CC54)c(Cl)cc23)C[C@@H]1CC#N` (single isomer, unassigned) [Example 918], the IC50 stood at 40 nM.
Same read-out and setting: next, `C=C(F)C(=O)N1CCN(c2nc(OC[C@@]34CCCN3C[C@H](F)C4)nc3c(F)c(-c4cccc5c4CC4CC54)ncc23)C[C@@H]1CC#N` (single isomer, unassigned) [Example 880]: 433 nM; `C=CC(=O)N1CC[C@H]2[C@H]1CN2c1nc(OC[C@@]23CCCN2C[C@H](F)C3)nc2cc(-c3cccc4cccc(Cl)c34)c(Cl)cc12` [Example 474]: 30 nM.

The assay is the same for the next values; noted with them: Homo sapiens, NCI-H358, 120 h, 5 days incubation, absorbance 492 nm.
For the molecule `C=C(F)C(=O)N1CCN(c2nc(OC[C@@]34CCCN3C[C@H](F)C4)nc3c(OC4CC4)c(-c4cccc5ccc(F)c(Cl)c45)c(Cl)cc23)C[C@@H]1CC#N` [Example 915, 2-((2S)-4-(6-chloro-7-(8-chloro-7-fluoronaphthalen-1-yl)-8-cyclopropoxy-2-((2R,7aS)-2-fluorotetrahydro-1H-pyrrolizin-7a(5H)-ylmethoxy)quinazolin-4-yl)-1-(2-fluoroacryloyl)piperazin-2-yl)acetonitrile], the IC50 worked out at 33 nM.
Same read-out and setting: the value for `C=CC(=O)N1CCN(c2nc(OC[C@@H]3C[C@@H](F)CN3C)nc3c(F)c(-c4cncc5c4CCCC5)ncc23)C[C@@H]1CC#N` [Example 35] was 15 nM; that for `C=C(F)C(=O)N1CCN(c2nc(OC[C@@H]3CCCN3C)nc3cc(-c4cncc5c4CCCC5)ccc23)C[C@@H]1CC#N` [Example 143] was 80 nM.
Still for that read-out and setting: the value for `C=C(F)C(=O)N1CCN(c2nc(OC[C@@]34CCCN3C[C@H](F)C4)nc3nc(-c4cccc5cccc(Cl)c45)ccc23)C[C@@H]1CC#N` [Example 261] was 24 nM; that for `C=C(F)C(=O)N1CCN(c2nc(OC[C@@H]3C[C@@H](F)CN3C)nc3c(F)c(-c4ccc(F)c5c4CCCC5)ncc23)C[C@@H]1CC#N` [Example 20] was 120 nM.
Same read-out and setting: next, `C=CC(=O)N1CCN(c2nc(OC[C@@H]3CCCN3C)nc3cc(-c4cccc5ccc(F)c(Cl)c45)c(Cl)cc23)C[C@@H]1CC#N` [Example 466]: 65 nM; `C=C(F)C(=O)N1CCN(c2nc(OCC34CCCN3CCC4)nc3c(F)c(-c4cncc5cccc(Cl)c45)ccc23)C[C@@H]1CC#N` [Example 163, (S)-2-(4-(7-(5-chloroisoquinolin-4-yl)-8-fluoro-2-((tetrahydro-1H-pyrrolizin-7a(5H)-yl)methoxy)quinazolin-4-yl)-1-(2-fluoroacryloyl)piperazin-2-yl)acetonitrile]: 5 nM.
As to `C=CC(=O)N1CC[C@@H]2[C@H]1CN2c1nc(OC[C@@H]2CCCN2C)nc2cc(-c3cccc4cccc(Cl)c34)ccc12` [Example 85, 1-((1R,5R)-6-(7-(8-chloronaphthalen-1-yl)-2-(((S)-1-methylpyrrolidin-2-yl)methoxy)quinazolin-4-yl)-2,6-diazabicyclo[3.2.0]hept-2-yl)prop-2-en-1-one], the IC50 was determined as 6 nM.
Still for that read-out and setting: the value for `C=C(F)C(=O)N1CCN(c2nc(OC[C@@]34CCCN3C[C@H](F)C4)nc3c(F)c(-c4cncc5cccc(Cl)c45)ccc23)C[C@@H]1CC#N` [Example 165] was 4 nM; that for `C=CC(=O)N1CCN(c2nc(OC[C@@H]3C[C@@H](F)CN3C)nc3c(F)c(-c4cccc5c4CCCC5)c(F)cc23)C[C@@H]1CC#N` [Example 432] was 2.4 nM.
Still for that read-out and setting: next, `C=CC(=O)N1CCN(c2nc(OC[C@@H]3CCCN3C)nc3c(F)c(-c4cccc5c4CCCC5)c(Cl)cc23)CC1` [Example 76, 1-(4-(6-chloro-8-fluoro-2-(((S)-1-methylpyrrolidin-2-yl)methoxy)-7-(5,6,7,8-tetrahydronaphthalen-1-yl)quinazolin-4-yl)piperazin-1-yl)prop-2-en-1-one]: 160 nM; `C=C(F)C(=O)N1CCN(c2nc(OCC34CCCN3C[C@H](F)C4)nc3cc(-c4cncc5cccc(Cl)c45)ccc23)C[C@@H]1CC#N` (some centres unmarked) [Example 133]: 8 nM; `C=CC(=O)N1CCN(c2nc(OC[C@@H]3CCCN3C)nc3c(F)c(-c4cccc5c4SCCC5)ncc23)C[C@@H]1CC#N` [Example 49, 2-((S)-1-acryloyl-4-(8-fluoro-2-(((S)-1-methylpyrrolidin-2-yl)methoxy)-7-(thiochroman-8-yl)pyridino[4,3-d]pyrimidin-4-yl)piperazin-2-yl)acetonitrile]: 57 nM.
Regarding `C=C(F)C(=O)N1CCN(c2nc(OCC34CCCN3CCC4)nc3c(F)c(-c4cccc5c4[C@@H]4C[C@@H]4C5)ncc23)C[C@@H]1CC#N` [Example 66, 2-((S)-4-(8-fluoro-2-((tetrahydro-1H-pyrrolizin-7a(5H)-yl)methoxy)-7-((1aR,6aR)-1,1a,6,6a-tetrahydrocyclopropa[a]inden-2-yl)pyridino[4,3-d]pyrimidin-4-yl)-1-(2-fluoroacryloyl)piperazin-2-yl)acetonitrile], the IC50 was found to be 9 nM. This IC50 lies about 6.3-fold lower than the previous one.
Same read-out and setting: the value for `C=CC(=O)N1CCN(c2nc(OC[C@@H]3C[C@@H](F)CN3C)nc3c(F)c(-c4ccc(F)c5c4CCCC5)ncc23)C[C@@H]1CC#N` [Example 19] was 35 nM.
Same read-out and setting: next, `C=C(F)C(=O)N1CCN(c2nc(OC[C@@H]3CCCN3C)nc3cc(-c4cccc5cccc(Cl)c45)ccc23)C[C@@H]1CC#N` [Example 78]: 60 nM.
Same read-out and setting: the value for `C=C(F)C(=O)N1CCN(c2nc(OCC34CCCN3CCC4)nc3cc(-c4cccc5ccc(F)c(Cl)c45)ccc23)C[C@@H]1CC#N` [Example 98, (S)-2-(4-(7-(8-chloro-7-fluoronaphthalen-1-yl)-2-((tetrahydro-1H-pyrrolizin-7a(5H)-yl)methoxy)quinazolin-4-yl)-1-(2-fluoroacryloyl)piperazin-2-yl)acetonitrile] was 8 nM; that for `C=CC(=O)N1CCC2[C@H]1CN2c1nc(OC[C@@H]2CCCN2C)nc2c(F)c(-c3cccc4c3CCCC4)ccc12` (some centres unmarked) [Example 369] was 20 nM; that for `C=C(F)C(=O)N1CCN(C2=C(C#N)C(OCC34CCCN3CCC4)=NC3C=C(c4cccc5ccc(F)c(Cl)c45)C=CC23)C[C@@H]1CC#N` (some centres unmarked) [Example 627] was 120 nM.
`C=CC(=O)N1CC[C@@H]2[C@H]1CN2c1nc(OC[C@@]23CCCN2C[C@H](F)C3)nc2c(F)c(-c3ccc(F)c4c3CCCC4)ncc12` [Example 31] gave an IC50 of 8 nM.
On to `C=CC(=O)N1CCN(c2nc(OC[C@@]34CCCN3C[C@H](F)C4)nc3c(F)c(-c4cccc5c4CCCC5)ccc23)C[C@@H]1CC#N` [Example 366], for which the IC50 was found to be 3 nM. This IC50 is about 2.7-fold lower than that of the molecule before.
As for `C=CC(=O)N1CCN(c2nc(OC[C@@]34CCCN3C[C@H](F)C4)nc3c(F)c(-c4cccc5c4[C@H]4C[C@H]4C5)ncc23)C[C@@H]1CC#N` [Example 69], half-maximal inhibition (IC50) required 1.8 nM.
In the case of `C=C(F)C(=O)N1CCN(c2nc(OCC34CCCN3CCC4)nc3c(F)c(-c4ccc(F)c5c4CCCC5)ncc23)C[C@@H]1CC#N` [Example 22], the midpoint of inhibition, the IC50, lay at 20 nM.
In the case of `C=CC(=O)N1CCN(C2=C(C#N)C(OC[C@@H]3CCCN3C)=NC3C=C(c4cccc5ccc(F)c(Cl)c45)C=CC23)C[C@@H]1CC#N` (some centres unmarked) [Example 623], the IC50 turned out to be 200 nM.
Still for that read-out and setting: the value for `C=CC(=O)N1CCN(c2nc(OC[C@@]34CCCN3C[C@H](F)C4)nc3c(F)c(-c4cccc5c4[C@@H]4C[C@@H]4C5)ncc23)C[C@@H]1CC#N` [Example 71] was 0.2 nM.
Still for that read-out and setting: next, `C=CC(=O)N1CCN(c2nc(OCC34CCCN3CCC4)nc3c(F)c(-c4cccc5c4[C@@H]4C[C@@H]4C5)ncc23)C[C@@H]1CC#N` [Example 65]: 3.2 nM; `C=CC(=O)N1CCN(c2nc(OC[C@@H]3CCCN3C)nc3cc(-c4cccc5ccc(F)c(Cl)c45)ccc23)C[C@@H]1CC#N` [Example 93, 2-((S)-1-acryloyl-4-(7-(8-chloro-7-fluoronaphthalen-1-yl)-2-(((S)-1-methylpyrrolidin-2-yl)methoxy)quinazolin-4-yl)piperazin-2-yl)acetonitrile]: 6.5 nM; `C=CC(=O)N1CCN(c2nc(OCC34CCCN3CCC4)nc3c(F)c(-c4cccc5c4CCCC5)ccc23)C[C@@H]1CC#N` [Example 363, (S)-2-(1-acryloyl-4-(8-fluoro-2-((tetrahydro-1H-pyrrolizin-7a(5H)-yl)methoxy)-7-(5,6,7,8-tetrahydronaphthalene)-1-yl)quinazolin-4-ylpiperazin-2-yl)acetonitrile]: 5 nM.
`C=CC(=O)N1CCN(c2nc(OC[C@@H]3C[C@@H](F)CN3C)nc3c(F)c(-c4cccc5c4CCCC5)ccc23)C[C@@H]1CC#N` [Example 360] came in with an IC50 of 10 nM.
